“And” between values parts separate entries of the source, which are not always exact repeats. Equal entries are not always repeated. Toxic doses and inconclusive results are not listed. The calls were made as follows: active = survival T/C of 150% or more; inactive = T/C below 125% in these data. Square brackets hold non-standard residues; d marks the D form. Peptide text beside a SMILES is read from it. * marks the point of attachment. Cbz = O=C(OCc1ccccc1)*; Nva = CCC[CH](N)C(=O)O
Tested on: P388 leukemia ip, CD2F1 mice, survival T/C
Test: NCI In Vivo Anticancer Drug Screen. Data for tumor model P388 Leukemia (intraperitoneal) in CD2F1 (CDF1) mice
Conditions: endpoint: median survival time, higher = longer survival
In short: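 Mice carrying the transplanted tumor received test compound or vehicle. Survival was recorded in each group, and the value is the treated-group measurement divided by that of the vehicle-treated control group.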

[1] = dose: 50.0 mg/kg/injection, schedule: Q01DX005 (ip), vehicle: saline with Tween-80
[2] = dose: 100.0 mg/kg/injection, schedule: Q01DX005 (ip), vehicle: saline with Tween-80
[3] = dose: 200.0 mg/kg/injection, schedule: Q01DX005 (ip), vehicle: saline with Tween-80
[4] = dose: 50.0 mg/kg/injection, schedule: Q01DX005 (ip), vehicle: Klucel (hydroxypropylcellulose) (HPC)
[5] = dose: 100.0 mg/kg/injection, schedule: Q01DX005 (ip), vehicle: Klucel (hydroxypropylcellulose) (HPC)
[6] = dose: 200.0 mg/kg/injection, schedule: Q01DX005 (ip), vehicle: Klucel (hydroxypropylcellulose) (HPC)
[7] = dose: 50.0 mg/kg/injection, schedule: Q01DX009 (ip), vehicle: Klucel (hydroxypropylcellulose) (HPC)
[8] = dose: 100.0 mg/kg/injection, schedule: Q01DX009 (ip), vehicle: Klucel (hydroxypropylcellulose) (HPC)
[9] = dose: 200.0 mg/kg/injection, schedule: Q01DX009 (ip), vehicle: Klucel (hydroxypropylcellulose) (HPC)
[10] = dose: 12.5 mg/kg/injection, schedule: Q01DX009 (ip), vehicle: saline with Tween-80
[11] = dose: 25.0 mg/kg/injection, schedule: Q01DX009 (ip), vehicle: saline with Tween-80
[12] = dose: 50.0 mg/kg/injection, schedule: Q01DX009 (ip), vehicle: saline with Tween-80
[13] = dose: 100.0 mg/kg/injection, schedule: Q01DX009 (ip), vehicle: saline with Tween-80
[14] = dose: 200.0 mg/kg/injection, schedule: Q01DX009 (ip), vehicle: saline with Tween-80
[15] = dose: 60.0 mg/kg/injection, schedule: Q01DX005 (ip), vehicle: saline with Tween-80
[16] = dose: 120.0 mg/kg/injection, schedule: Q01DX005 (ip), vehicle: saline with Tween-80
[17] = dose: 240.0 mg/kg/injection, schedule: Q01DX005 (ip), vehicle: saline with Tween-80
[18] = dose: 50.0 mg/kg/injection, schedule: Q01DX005 (ip), vehicle: saline
[19] = dose: 100.0 mg/kg/injection, schedule: Q01DX005 (ip), vehicle: saline
[20] = dose: 200.0 mg/kg/injection, schedule: Q01DX005 (ip), vehicle: saline

Measured: T/C

NC(=O)c1[nH]c(N=Nc2ccccc2)nc1N
inactive: dose: 100.0 mg/kg/injection, schedule: Q04DX003 (ip), vehicle: Klucel (hydroxypropylcellulose) (HPC) 102 % of control | dose: 200.0 mg/kg/injection, schedule: Q04DX003 (ip), vehicle: Klucel (hydroxypropylcellulose) (HPC) 102 % of control | dose: 400.0 mg/kg/injection, schedule: Q04DX003 (ip), vehicle: Klucel (hydroxypropylcellulose) (HPC) 103 % of control

O=[N+]([O-])c1ccc(CS(=O)(=O)OCCCl)cc1
inactive: [1] 98 % of control | [2] 98 % of control | [3] 94 % of control

CCCC(NC(=O)OCc1ccccc1)C(=O)NC(Cc1ccc(O)cc1)C(=O)O (stereo not given) (Cbz-[Nva]-Tyr-OH; configuration not given here)
inactive: [4] 102 % of control | [5] 105 % of control | [6] 94 % of control

O=C(Nc1ccc(Cl)c([N+](=O)[O-])c1)Nc1nc2ccccc2s1
inactive: [4] 98 % of control | [5] 86 % of control | [6] 87 % of control

O=C1CCCC(C(Sc2ccccc2)(Sc2ccccc2)Sc2ccccc2)C1 (stereo not given)
inactive: [7] 99 % of control | [8] 95 % of control | [9] 93 % of control

O=[N+]([O-])c1cccc2c[n+](Cc3ccccc3)ccc12
inactive: [10] 113 % of control | [11] 118 % of control | [12] 107 % of control

C/C(=N\NC(=S)Nc1cccc(F)c1)c1ccccn1
inactive: [1] 109 % of control | [2] 112 % of control | [3] 119 % of control

Nc1cc(Cl)ccc1[N+](=O)[O-]
inactive: [13] 108 % of control | [14] 99 % of control | dose: 400.0 mg/kg/injection, schedule: Q01DX009 (ip), vehicle: saline with Tween-80 89 % of control

N#C/C(=C1/Nc2ccccc2NC1=O)c1ccccc1
inactive: dose: 50.0 mg/kg/injection, schedule: Q01DX009 (ip), vehicle: distilled water + Tween-80 + alcohol 96 % of control | dose: 100.0 mg/kg/injection, schedule: Q01DX009 (ip), vehicle: distilled water + Tween-80 + alcohol 92 % of control

COc1cc(OC)c(/C=C\c2nccc3ccccc23)c(OC)c1
inactive: [12] 95 % of control | [13] 96 % of control | [14] 96 % of control

Cn1cnc([N+](=O)[O-])c1Sc1cn(C2CC(O)C(CO)O2)c(=O)[nH]c1=O (stereo not given)
inactive: dose: 60.0 mg/kg/injection, schedule: Q01DX005 (ip), vehicle: Klucel (hydroxypropylcellulose) (HPC) 101 % of control | dose: 120.0 mg/kg/injection, schedule: Q01DX005 (ip), vehicle: Klucel (hydroxypropylcellulose) (HPC) 102 % of control | dose: 240.0 mg/kg/injection, schedule: Q01DX005 (ip), vehicle: Klucel (hydroxypropylcellulose) (HPC) 107 % of control

N#CC(C(O)c1ccccc1)N1CCOCC1 (stereo not given)
inactive: dose: 50.0 mg/kg/injection, schedule: Q01DX009 (ip), vehicle: suspension in saline 102 % of control | dose: 100.0 mg/kg/injection, schedule: Q01DX009 (ip), vehicle: suspension in saline 109 % of control | dose: 200.0 mg/kg/injection, schedule: Q01DX009 (ip), vehicle: suspension in saline 94 % of control

Cc1cc2c(cc1C)NS(=O)(=O)N2
inactive: [15] 102 % of control | [16] 109 % of control | [17] 102 % of control

CSc1cccc(NC(=O)Oc2cccnc2)c1
inactive: [7] 103 % of control | [8] 100 % of control | [9] 100 % of control

CCOC(=O)c1cn(C)c2c1C(O)=C(C(=O)OC)CC(=O)N2
inactive: dose: 100.0 mg/kg/injection, schedule: Q04DX003 (ip), vehicle: saline with Tween-80 95 % of control | dose: 200.0 mg/kg/injection, schedule: Q04DX003 (ip), vehicle: saline with Tween-80 100 % of control | dose: 400.0 mg/kg/injection, schedule: Q04DX003 (ip), vehicle: saline with Tween-80 117 % of control

CN1CCC/C1=N\C(=Nc1ccccc1)N1CCCC1
inactive: dose: 6.25 mg/kg/injection, schedule: Q01DX005 (ip), vehicle: saline 105 % of control | dose: 12.5 mg/kg/injection, schedule: Q01DX005 (ip), vehicle: saline 102 % of control | dose: 25.0 mg/kg/injection, schedule: Q01DX005 (ip), vehicle: saline 103 % of control

CSC1=NC=C(C#N)C2=NC(c3ccc(Cl)cc3)NN12 (stereo not given)
inactive: [15] 90 % of control | [16] 93 % of control | [17] 94 % of control

CC(=O)NC(N)=NC#N
inactive: dose: 50.0 mg/kg/injection, schedule: Q01DX001 (ip), vehicle: saline 98 % of control | dose: 100.0 mg/kg/injection, schedule: Q01DX001 (ip), vehicle: saline 100 % of control | dose: 200.0 mg/kg/injection, schedule: Q01DX001 (ip), vehicle: saline 96 % of control | dose: 400.0 mg/kg/injection, schedule: Q01DX001 (ip), vehicle: saline 103 % of control

Cc1nc2c([N+](=O)[O-])c(N3CCCCC3)c([N+](=O)[O-])cc2[nH]1
inactive: dose: 100.0 mg/kg/injection, schedule: Q04DX002 (ip), vehicle: saline with Tween-80 101 % of control | dose: 200.0 mg/kg/injection, schedule: Q04DX002 (ip), vehicle: saline with Tween-80 104 % of control

CCOC(=O)C1=C(C(=O)c2ccc(OC)cc2)C(c2ccc(Cl)cc2Cl)C(C(=O)c2ccc(OC)cc2)=C(C(=O)OCC)N1
inactive: dose: 30.0 mg/kg/injection, schedule: Q01DX005 (ip), vehicle: saline with Tween-80 96 % of control | [15] 91 % of control and 94 % of control | [16] 101 % of control | [17] 92 % of control

CC(NC(=O)C(N)CCC(=O)O)C(=O)O (stereo not given)
inactive: [18] 103 % of control | [19] 100 % of control | [20] 107 % of control

N#CC(C(=O)O)C(c1c(Cl)cccc1Cl)C(C#N)C(=O)O (stereo not given)
inactive: [1] 97 % of control | [2] 89 % of control

CCCCCCCCCCCCCCCCCc1cccc(O)c1
inactive: dose: 12.5 mg/kg/injection, schedule: Q01DX009 (ip), vehicle: Klucel (hydroxypropylcellulose) (HPC) 114 % of control | dose: 25.0 mg/kg/injection, schedule: Q01DX009 (ip), vehicle: Klucel (hydroxypropylcellulose) (HPC) 103 % of control | [7] 114 % of control

Cc1ccc(C[n+]2ccc3c([N+](=O)[O-])cccc3c2)cc1
inactive: dose: 6.25 mg/kg/injection, schedule: Q01DX009 (ip), vehicle: saline with Tween-80 112 % of control | [10] 113 % of control | [11] 114 % of control

CC1CC(C)(C)C2=NCCN21 (stereo not given)
inactive: dose: 6.25 mg/kg/injection, schedule: Q01DX009 (ip), vehicle: water 105 % of control | dose: 12.5 mg/kg/injection, schedule: Q01DX009 (ip), vehicle: water 100 % of control | dose: 15.0 mg/kg/injection, schedule: Q01DX005 (ip), vehicle: saline 106 % of control | dose: 25.0 mg/kg/injection, schedule: Q01DX009 (ip), vehicle: water 107 % of control | dose: 30.0 mg/kg/injection, schedule: Q01DX005 (ip), vehicle: saline 106 % of control | dose: 50.0 mg/kg/injection, schedule: Q01DX009 (ip), vehicle: water 107 % of control | dose: 60.0 mg/kg/injection, schedule: Q01DX005 (ip), vehicle: saline 99 % of control and 100 % of control

CCC(O)c1ccco1 (stereo not given)
inactive: dose: 12.5 mg/kg/injection, schedule: Q01DX005 (ip), vehicle: saline with Tween-80 109 % of control | dose: 25.0 mg/kg/injection, schedule: Q01DX005 (ip), vehicle: saline with Tween-80 100 % of control | [1] 111 % of control and 112 % of control

CN1c2c(C(=O)Nc3nccs3)nn(-c3ccccc3)c2-c2ccccc2S1(=O)=O
inactive: [18] 89 % of control | [19] 92 % of control | [20] 99 % of control

O=[N+]([O-])c1ccc2c(N3CCC(CCCC4CCN(c5ncnc6cc([N+](=O)[O-])ccc56)CC4)CC3)ncnc2c1
inactive: [1] 89 % of control | [2] 96 % of control | [3] 100 % of control

CCOC(=O)C[C@@]1(C)C(=O)O[C@H](c2ccccc2)N1C(=O)c1ccccc1
inactive: [15] 106 % of control | [16] 100 % of control | [17] 94 % of control

Source: PubChem BioAssay AID330 (DTP/NCI, 2004)
